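Method: 48-hour compound exposure of cells in 96-well plates, five concentrations, linear interpolation of endpoints. Abbreviation: GI50, concentration required for 50% inhibition of growth. TGI: concentration producing complete growth inhibition.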

Test systems include A498 renal; HCT-116 colon; HOP-92 NSCLC; HS 578T breast; LOX IMVI melanoma; NCI-H226 lung; OVCAR-5 ovarian; UACC-257 melanoma.
Common to all, as to test: NCI-60 cell line screen, 48 h

As to `Cn1c(=O)c2c(nc(N/N=C/c3ccccc3C(=O)O)n2C)n(C)c1=O`, the TGI in the assay with A498 renal, in the assay on HCT-116 colon, with HOP-92 NSCLC, with HS 578T breast, with LOX IMVI melanoma and in the assay with NCI-H226 lung was more than 100000 nM in each case. Also, the TGI in the assay on OVCAR-5 ovarian and in the assay on UACC-257 melanoma was more than 100000 nM throughout.
On to `NC(=O)/C(=C/n1cnc(-c2cc(C(F)(F)F)cc(C(F)(F)F)c2)n1)c1cncnc1`, for which the GI50 was 84.8 nM with A498 renal; 162 nM in the assay with HCT-116 colon; 159 nM in the assay with HOP-92 NSCLC; 793 nM with HS 578T breast; 303 nM in the assay on LOX IMVI melanoma; 286 nM in the assay with NCI-H226 lung. Besides, the GI50 in the assay with OVCAR-5 ovarian was 447 nM; with UACC-257 melanoma, 860 nM. Further, the TGI was determined as 1260 nM in the assay on A498 renal; 4950 nM with HCT-116 colon; 8230 nM in the assay on HOP-92 NSCLC; 13500 nM in the assay with HS 578T breast; 4360 nM in the assay on LOX IMVI melanoma; 7730 nM in the assay on NCI-H226 lung. Besides, the TGI was 16200 nM in the assay on OVCAR-5 ovarian and 8990 nM in the assay on UACC-257 melanoma.
Consider `C[As](C)SC1OCC(O)C(O)C1O` (stereo not given), for which the GI50 in the assay on A498 renal is 316 nM; in the assay on HCT-116 colon, 244 nM; in the assay on HOP-92 NSCLC it was 283 nM; with HS 578T breast it was 276 nM; in the assay on LOX IMVI melanoma it was 199 nM; with NCI-H226 lung it was 680 nM. Also, the GI50 with OVCAR-5 ovarian is 208 nM; in the assay with UACC-257 melanoma, 1430 nM. Also, the TGI with A498 renal was 1220 nM; with HCT-116 colon, 1370 nM; in the assay on HOP-92 NSCLC, 2070 nM; in the assay on HS 578T breast, 718 nM; with LOX IMVI melanoma it was 566 nM; in the assay on NCI-H226 lung, 2190 nM. In addition, the TGI is 710 nM in the assay with OVCAR-5 ovarian and 7220 nM with UACC-257 melanoma.
On to `CCn1c(-c2nonc2N)nc2cnc(Oc3cccc(NC(=O)c4ccc(N(C)C)cc4)c3)cc21`, for which the GI50 with A498 renal was 4480 nM; in the assay on HCT-116 colon, 11300 nM; in the assay with HOP-92 NSCLC, 4.47 nM; in the assay with HS 578T breast it was 62.3 nM; in the assay on LOX IMVI melanoma, more than 25000 nM; in the assay with NCI-H226 lung, more than 25000 nM. Also, the GI50 in the assay with OVCAR-5 ovarian and in the assay with UACC-257 melanoma was more than 25000 nM each time. Also, the TGI in the assay on A498 renal, with HCT-116 colon, in the assay with HOP-92 NSCLC, in the assay with HS 578T breast, with LOX IMVI melanoma and in the assay on NCI-H226 lung was more than 25000 nM throughout. In addition, the TGI with OVCAR-5 ovarian and with UACC-257 melanoma was more than 25000 nM in each case.
Regarding `COc1ccc2c(c1OC)O/C(=C\c1ncc([N+](=O)[O-])n1C)C2=O`, the GI50 in the assay with A498 renal is 3320 nM; in the assay with HCT-116 colon, 455 nM; with HOP-92 NSCLC it was 1450 nM; in the assay on HS 578T breast it was 2150 nM; with LOX IMVI melanoma, 482 nM; in the assay with NCI-H226 lung, 7290 nM. Besides, the GI50 with OVCAR-5 ovarian was 2820 nM; in the assay on UACC-257 melanoma, 788 nM. Further, the TGI was 10400 nM in the assay with A498 renal; 3680 nM in the assay on HCT-116 colon; 4860 nM with HOP-92 NSCLC; more than 22800 nM in the assay on HS 578T breast; 2040 nM with LOX IMVI melanoma; 50800 nM in the assay on NCI-H226 lung. Besides, the TGI in the assay on OVCAR-5 ovarian worked out at 12500 nM; in the assay with UACC-257 melanoma, 2670 nM.
Turning to `COc1cc(-c2nn(-c3cccc(NC(=O)CCNc4ccc(N5CCOCC5)cc4)c3)cc2-c2ccncc2)ccc1Cl`, the GI50 in the assay on A498 renal was 2520 nM; with HCT-116 colon it was 2310 nM; in the assay with HOP-92 NSCLC it was 2370 nM; in the assay with HS 578T breast it was 3270 nM; with LOX IMVI melanoma, 2600 nM; with NCI-H226 lung, 2890 nM. The GI50 was 3430 nM with OVCAR-5 ovarian and 2380 nM in the assay on UACC-257 melanoma. Besides, the TGI in the assay on A498 renal was 17400 nM; in the assay on HCT-116 colon it was more than 100000 nM; with HOP-92 NSCLC, 8010 nM; in the assay with HS 578T breast, more than 100000 nM; in the assay on LOX IMVI melanoma, 13000 nM; with NCI-H226 lung it was 27800 nM. Further, the TGI with OVCAR-5 ovarian was more than 100000 nM; with UACC-257 melanoma, 8720 nM.
For the molecule `CC(=O)Oc1cc2cnc3c4cc(OC(C)=O)c(OC(C)=O)cc4ccc3c2cc1OC(C)=O`, the GI50 in the assay with A498 renal was 443 nM; with HCT-116 colon, 471 nM; with HOP-92 NSCLC, 538 nM; with HS 578T breast, 1010 nM; in the assay on LOX IMVI melanoma it was 1230 nM; with NCI-H226 lung it was 2040 nM. Further, the GI50 was 3930 nM with OVCAR-5 ovarian and 2560 nM in the assay on UACC-257 melanoma. Besides, the TGI with A498 renal is 1840 nM; in the assay on HCT-116 colon it was 3860 nM; with HOP-92 NSCLC it was 37900 nM; in the assay with HS 578T breast it was 9560 nM; in the assay with LOX IMVI melanoma, more than 100000 nM; in the assay on NCI-H226 lung it was 8910 nM. The TGI in the assay on OVCAR-5 ovarian and in the assay with UACC-257 melanoma was more than 100000 nM each time.
For `O=C1Nc2ccc3c(c2/C1=C\c1cc2c(cc1Br)OCO2)OCO3`, the GI50 in the assay with A498 renal is 287 nM; in the assay on HCT-116 colon, 376 nM; with HOP-92 NSCLC, 1160 nM; with HS 578T breast, 376 nM; in the assay on LOX IMVI melanoma it was 652 nM; in the assay with NCI-H226 lung, 1380 nM. Moreover, the GI50 was 1550 nM in the assay with OVCAR-5 ovarian and 685 nM in the assay with UACC-257 melanoma. In addition, the TGI in the assay on A498 renal was found to be 1080 nM; in the assay with HCT-116 colon it was 1720 nM; in the assay with HOP-92 NSCLC, 4370 nM; with HS 578T breast, 2110 nM; in the assay on LOX IMVI melanoma it was 4570 nM; with NCI-H226 lung, 5350 nM. In the assay on OVCAR-5 ovarian, this molecule yielded a TGI of 5890 nM.
In the case of `COc1ccc(C(O)c2cc3c(N)c(C(=O)Nc4cccc(Br)c4C)sc3nc2C)cc1` (stereo not given), the GI50 is 82 nM with A498 renal; 141 nM with HCT-116 colon; 261 nM with HOP-92 NSCLC; 106 nM in the assay on HS 578T breast; 187 nM in the assay with LOX IMVI melanoma; 989 nM with NCI-H226 lung. Moreover, the GI50 with OVCAR-5 ovarian was 666 nM; in the assay with UACC-257 melanoma, 307 nM. In addition, the TGI with A498 renal was determined as 1280 nM; in the assay on HCT-116 colon, 7460 nM; in the assay on HOP-92 NSCLC it was 18000 nM; with HS 578T breast, 3750 nM; in the assay on LOX IMVI melanoma, 12400 nM; in the assay with NCI-H226 lung, 17900 nM. Also, the TGI is more than 25600 nM in the assay on OVCAR-5 ovarian and more than 33300 nM with UACC-257 melanoma.
